Experimental data reported in patent publication US3988466A, “Prevention of gastric lesions” (priority 1973, dated 1976).

Assays:
[1] = test system: aspirin-induced gastric lesions in pylorus-ligated rats; test: Effect of L-glutamine on aspirin-induced gastric lesions in pylorus-ligated rats (Experiment 1); type: in vivo, male Donryu strain rats; conditions: for Ulcer index / Inhibition: aspirin 100 mg/kg oral; for Ulcer index: 7 hours; for Inhibition: vs control ulcer index
Protocol: In this Experiment, 6 groups of male Donryu strain rats are used. The animals are fasted for 24 hours but water is allowed ad libitum. Under ether anesthesia, the pylorus is ligated according to the standard method of Shay et al. Five groups are treated with graded doses of L-glutamine suspended in 1% carboxymethylcellulose solution by oral administration immediately after the pylorus ligation. A sixth group (control) is treated with 5 ml/kg of 1% carboxymethylcellulose solution alone. […] After a 7-hour interval during which the animals are not allowed feed or water, the animals are killed by an overdose of ether. […] The stomach is removed and slightly inflated by injection of 1% formalin solution through the esophagel junction. […] The stomach is opened along the greater curvature and the length of lesions (dark blue areas against pale blue background) in the glandular portion is measured under a dissecting microscope (10x) provided with a square grid. […] The ulcer index expressed by mm indicates the mean value of the sum of the length of the lesions per animal of each group. The level of significance is calculated according to Student t-test.

[2] = test system: gastric secretion in pylorus-ligated rats; test: Effect of L-glutamine on gastric secretion in pylorus-ligated rats (Experiment 4); type: in vivo, male Donryu strain rats; conditions: for Gastric juice volume / Pepsin concentration / Titrable acidity: 7 hours; for Acid output: volume × titrable acidity / 7 hours
Protocol: In this Experiment, 7 groups of male Donryu strain rats are used. After 24 hours of fasting, the pylorus of the animal is ligated in the same manner as described in Experiment 1. Six groups are treated in the same manner as described in Experiment 1 except for the injection of the solution of pontamine sky blue 6BX in saline. A seventh group (normal) is treated twice with 5 ml/kg of 1% carboxymethylcellulose solution.
After 7 hours of pylorus ligation, the animals are killed and the stomach is removed. The gastric juice is collected and the volume is measured. The gastric juice is titrated to pH 7.4 with 0.1N NaOH using an electromatic pH meter. The concentration of pepsin in the gastric juice is also determined according to Anson's hemoglobin method [Anson, M. L., J. Gen. Physiol.

[3] = L-glutamine 62.5 mg/kg, aspirin 100 mg/kg
[4] = L-glutamine 125 mg/kg, aspirin 100 mg/kg
[5] = L-glutamine 250 mg/kg, aspirin 100 mg/kg
[6] = L-glutamine 500 mg/kg, aspirin 100 mg/kg
[7] = L-glutamine 1000 mg/kg in presence of aspirin
[8] = L-glutamine 1,000 mg/kg, aspirin 100 mg/kg

NC(=O)CC[C@H](N)C(=O)O [L-glutamine]
Ulcer index ([1]; L-glutamine 62.5 mg/kg oral): 57.6±5.6 mm
Inhibition ([1]; L-glutamine 62.5 mg/kg oral): -5.0%
gastric lesions preventive effect [1, 3]: no such effect is observed
Ulcer index ([1]; L-glutamine 125 mg/kg oral): 27.9±4.7 mm
Inhibition ([1]; L-glutamine 125 mg/kg oral): 49.0%
Ulcer index ([1]; L-glutamine 250 mg/kg oral): 15.0±3.4 mm
Inhibition ([1]; L-glutamine 250 mg/kg oral): 72.6%
Ulcer index ([1]; L-glutamine 500 mg/kg oral): 18.0±3.1 mm
Inhibition ([1]; L-glutamine 500 mg/kg oral): 67.1%
Ulcer index ([1]; L-glutamine 1,000 mg/kg oral): 3.5±1.5 mm
Inhibition ([1]; L-glutamine 1,000 mg/kg oral): 93.6%
animals with stomachs quite clear and no mucosal defect ([1]; L-glutamine 1000 mg/kg, aspirin 100 mg/kg): three out of 12
acid parameters (in words) ([2]; L-glutamine 62.5 mg/kg in presence of aspirin): almost the same as those of the control group
Gastric juice volume [2, 3]: 12.3 ± 0.5 mL
Pepsin concentration [2, 3]: 26.3 ± 0.5 mg/mL
Titrable acidity [2, 3]: 56.2±3.8 mEq/L
Acid output [2, 3]: 97.8±6.5 μEq/hr
Gastric juice volume [2, 4]: 12.1 ± 0.6 mL
Pepsin concentration [2, 4]: 25.5 ± 0.8 mg/mL
Titrable acidity [2, 4]: 88.9±4.8 mEq/L
Acid output [2, 4]: 154.0±12.1 μEq/hr
appearance of gastric juices compared with control group ([2]; L-glutamine 250 mg/kg or more, aspirin 100 mg/kg): relatively clear
Gastric juice volume [2, 5]: 12.5 ± 0.5 mL
Pepsin concentration [2, 5]: 27.1 ± 0.7 mg/mL
Titrable acidity [2, 5]: 108.0±4.2 mEq/L
Acid output [2, 5]: 194.1±13.5 μEq/hr
change in acid parameters (in words) ([2]; L-glutamine 500 mg/kg in presence of aspirin): No significant change
Gastric juice volume [2, 6]: 11.9 ± 0.4 mL
Pepsin concentration [2, 6]: 25.4 ± 0.7 mg/mL
Titrable acidity [2, 6]: 127.1±4.6 mEq/L
Acid output [2, 6]: 215.5±10.3 μEq/hr
effect on acid output (in words) [2, 7]: considerably increases the titrable acidity and acid output
effect on titrable acidity (in words) [2, 7]: considerably increases the titrable acidity
Gastric juice volume [2, 8]: 12.2 ± 0.3 mL
Pepsin concentration [2, 8]: 23.6 ± 1.1 mg/mL
Titrable acidity [2, 8]: 139.4±3.4 mEq/L
Acid output [2, 8]: 243.9±8.1 μEq/hr
pepsin concentration (in words) ([2]; L-glutamine at a wide range of doses): maintained at a normal level
